Source: patent US20070225242A1, “Method and composition for treating and preventing tumor metastasis in vivo” (The Board of Trustees of the Leland Stanford Junior …, priority 2005, published 2007)

Columns and labels:
[1] = system: Caski human cervical cancer cells; assay: Tail vein metastasis and survival assay, Caski cells; format: in vivo, mice
Description: Described briefly below are the results of experiments conducted with several different cell types. • 1. PANCREATIC: Panc-1 human pancreatic cells (see ATCC CRL-1469) expressing LOX shRNA were subjected to a tail vein metastasis assay comparing their metastatic growth to that of control Panc-1 cells. […] CERVICAL: Tail vein metastasis assays were performed using Caski human cervical cancer cells (See CRL-1550). After 4 weeks of growth, half the mice were treated with BAPN. […] COLON: HCT116 human colon cancer cells (see CCL-247) were transfected to express LOX shRNA and grown as subcutaneous tumors in nude mice, while comparing their growth with that of control cells.
Caski Cervical cancer cells were injected into the tail vein of immune deficient mice and analyzed for survival differences. Metastases were allowed to form for two weeks before animals were treated with 100 mg/kg BAPN daily for up to 40 days. FIG. 14 is a Kaplan-Meyer plot showing survival of the animals. […] Upon discontinuation of BAPN treatment, animals started to die.

LOX = target: T1, LOX (Homo sapiens, UniProt P28300); assay: LOX fluorescent activity assay, in vitro (conditioned medium from hypoxic cells); format: biochemical; settings: 500 μM BAPN, set as 0 fluorescence
T1 construct: endogenous in cells; host or cells: Hypoxic cancer cells
T1 sequence (P28300 169-417): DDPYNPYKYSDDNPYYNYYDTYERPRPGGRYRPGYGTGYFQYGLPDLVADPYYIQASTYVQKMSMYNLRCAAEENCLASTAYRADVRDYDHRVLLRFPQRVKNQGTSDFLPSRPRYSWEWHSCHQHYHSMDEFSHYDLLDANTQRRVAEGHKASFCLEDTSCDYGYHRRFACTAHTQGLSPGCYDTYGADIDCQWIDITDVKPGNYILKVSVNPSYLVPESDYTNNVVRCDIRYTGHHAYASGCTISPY
Text: LOX activity may be measured in a number of ways, using a soluble elastin or soluble collagen with labeled lysine as a substrate. Details of an activity assay are given in Royce et al., “Copper metabolism in mottled mouse mutants. The effect of copper therapy on lysyl oxidase activity in brindled (Mobr) mice,” Biochem J. 1982 Feb. 15; 202(2): 369-371. Especially preferred is a […] assay. One is described in Palamakumbura, et al. “A fluorometric assay for detection of lysyl oxidase enzyme activity in biological samples,” Anal Biochem. 2002 Jan. 15; 300(2):245-51. This method was used in the present work to assess LOX inhibition by BAPN and by anti-LOX antibody in cells in culture (using conditioned media) and in mice (using plasma), in a 96-well format.
LOX activity assay. The original method is described in Folgelgren, et al. J. Biol. Chem. 280:24690-24697 (2005). For the in vivo data, terminal bleeds were taken at the end of the experiment described above from untreated (control) mice, 2 and 3 wk BAPN mice, and antibody-treated mice. […] For the in vitro data, 50 μl of conditioned phenol-red-free medium was taken from cells incubated for 24 h under conditions of hypoxia. Samples were incubated overnight at 37° C. with different concentrations of BAPN or with purified LOX antibody at a concentration equivalent to 20 mg kg^−1 dose. Again, 0=fluorescent reading for 500 μM BAPN.

In the case of N#CCCN [BAPN, β-aminoproprionitrile], the animals survived ([1]; 100 mg/kg BAPN daily for up to 40 days, started two weeks after injection) was 100%, the “disease course on renewed BAPN treatment” value ([1]; BAPN administered after 90 days to animals that already harbored metastases) was “became stabilized” and the “lung foci (micro-metastases)” value ([1]; BAPN after 4 weeks of growth) was “eliminated formation of any lung foci”. For the same compound, the LOX inhibition (LOX) was “complete LOX inhibition”.
